From US9096531B2, “Fused imidazole derivative” (TOA EIYO LTD., priority 2010, dated 2015)

Each compound was assayed against T1, human T-type calcium channels (human Cav3.2) (Homo sapiens, UniProt O95180) (assay: Electrophysiological test (patch clamp method) in HEK293 cells stably expressing human Cav3.2). Details: auto-patch clamp, peak calcium current, holding potential -80 mV, pulse of -20 mV.
T1 construct: expressed in transfected cells
T1 sequence (O95180 whole entry): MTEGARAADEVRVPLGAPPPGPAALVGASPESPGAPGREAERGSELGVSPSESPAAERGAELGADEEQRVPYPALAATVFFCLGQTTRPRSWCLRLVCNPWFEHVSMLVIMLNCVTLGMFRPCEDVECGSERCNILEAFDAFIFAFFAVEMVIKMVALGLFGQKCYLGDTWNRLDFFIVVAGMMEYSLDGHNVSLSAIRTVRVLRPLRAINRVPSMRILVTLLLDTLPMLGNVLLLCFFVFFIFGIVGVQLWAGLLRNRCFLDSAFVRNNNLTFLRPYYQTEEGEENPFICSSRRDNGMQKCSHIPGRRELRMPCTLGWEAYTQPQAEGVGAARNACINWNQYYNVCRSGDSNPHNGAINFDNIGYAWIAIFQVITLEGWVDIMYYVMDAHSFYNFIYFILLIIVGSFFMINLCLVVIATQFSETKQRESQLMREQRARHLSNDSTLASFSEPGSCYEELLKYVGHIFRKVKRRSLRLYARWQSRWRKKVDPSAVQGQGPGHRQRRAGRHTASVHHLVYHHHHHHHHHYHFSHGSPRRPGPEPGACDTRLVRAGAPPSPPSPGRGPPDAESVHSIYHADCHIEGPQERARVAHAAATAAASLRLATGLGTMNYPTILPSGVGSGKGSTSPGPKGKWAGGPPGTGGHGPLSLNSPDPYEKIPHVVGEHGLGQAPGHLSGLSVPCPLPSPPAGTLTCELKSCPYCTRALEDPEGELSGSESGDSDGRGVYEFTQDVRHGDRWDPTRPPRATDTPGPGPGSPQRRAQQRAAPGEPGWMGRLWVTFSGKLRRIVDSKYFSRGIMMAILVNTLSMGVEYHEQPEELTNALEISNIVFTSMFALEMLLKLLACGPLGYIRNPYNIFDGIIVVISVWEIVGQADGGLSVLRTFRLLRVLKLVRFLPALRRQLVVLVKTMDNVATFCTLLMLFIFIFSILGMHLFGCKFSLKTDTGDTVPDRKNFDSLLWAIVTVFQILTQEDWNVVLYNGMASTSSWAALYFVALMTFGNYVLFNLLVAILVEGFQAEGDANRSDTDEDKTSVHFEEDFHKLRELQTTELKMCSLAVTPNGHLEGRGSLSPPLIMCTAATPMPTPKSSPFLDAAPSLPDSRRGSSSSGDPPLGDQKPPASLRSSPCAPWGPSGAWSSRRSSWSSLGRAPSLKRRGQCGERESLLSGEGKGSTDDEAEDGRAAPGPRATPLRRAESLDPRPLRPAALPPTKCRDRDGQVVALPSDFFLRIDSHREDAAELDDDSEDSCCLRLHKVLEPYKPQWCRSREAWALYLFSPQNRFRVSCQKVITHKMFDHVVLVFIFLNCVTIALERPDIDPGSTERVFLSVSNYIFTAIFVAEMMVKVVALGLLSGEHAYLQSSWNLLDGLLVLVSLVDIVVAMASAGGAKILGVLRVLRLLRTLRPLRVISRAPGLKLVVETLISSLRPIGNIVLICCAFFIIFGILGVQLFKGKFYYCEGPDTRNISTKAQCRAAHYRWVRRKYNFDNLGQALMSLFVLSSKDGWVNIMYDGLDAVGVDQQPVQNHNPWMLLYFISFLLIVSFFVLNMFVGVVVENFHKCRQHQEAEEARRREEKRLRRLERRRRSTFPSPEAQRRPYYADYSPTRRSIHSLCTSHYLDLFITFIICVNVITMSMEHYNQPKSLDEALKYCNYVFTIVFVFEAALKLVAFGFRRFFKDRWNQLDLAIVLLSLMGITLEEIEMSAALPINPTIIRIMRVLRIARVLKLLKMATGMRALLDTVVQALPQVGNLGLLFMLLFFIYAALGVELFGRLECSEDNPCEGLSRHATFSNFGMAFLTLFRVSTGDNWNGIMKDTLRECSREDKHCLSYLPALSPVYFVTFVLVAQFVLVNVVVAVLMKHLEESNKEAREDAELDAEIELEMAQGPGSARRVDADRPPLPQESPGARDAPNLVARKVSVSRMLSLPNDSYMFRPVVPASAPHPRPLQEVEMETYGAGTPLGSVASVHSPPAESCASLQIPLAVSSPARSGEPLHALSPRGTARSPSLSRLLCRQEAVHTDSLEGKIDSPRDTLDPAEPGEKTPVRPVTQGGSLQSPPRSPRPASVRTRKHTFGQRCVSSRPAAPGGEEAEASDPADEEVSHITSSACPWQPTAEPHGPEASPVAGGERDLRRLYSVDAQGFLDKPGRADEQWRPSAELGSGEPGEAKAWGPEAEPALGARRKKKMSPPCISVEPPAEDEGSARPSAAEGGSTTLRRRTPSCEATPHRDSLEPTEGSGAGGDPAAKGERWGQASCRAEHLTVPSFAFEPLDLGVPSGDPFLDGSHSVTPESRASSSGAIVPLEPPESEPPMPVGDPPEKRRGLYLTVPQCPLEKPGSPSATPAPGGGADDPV
Format: cell-based
Method: For each test, human embryonic kidney cells (HEK293 cells) in which human T-type calcium channels (human Cav3.2) were stably expressed were used.
HEK293 cells in which human Cav3.2 were stably expressed were cultured at 37° C. in Alpha-MEM containing 10% (v/v) fetal bovine serum (FBS), penicillin (100 U/mL), streptomycin (100 μg/mL) and G418 (250 μg/mL). The cells were dissociated by Accutase (Sigma-Aldrich Co.) treatment and were used as a suspension in the culture medium. The calcium current was measured with an auto-patch clamp system (Port-a-Patch, Nanion Technologies, GmbH), by using an internal solution (50 mmol/L CsCl, 10 mmol/L NaCl, 60 mmol/L CsF, 2 mmol/L MgCl2, 20 mmol/L EGTA, 10 mmol/L HEPES/CsOH, pH 7.2) and an external solution (80 mmol/L NaCl, 1 mmol/L TEAC1, 3 mmol/L KCl, 35 mmol/L CaCl2, 10 mmol/L MgCl2, 10 mmol/L HEPES, pH 7.2).
The inhibitory effect of the compound against the peak current was measured by fixing the holding potential at −80 mV, and applying a pulse of −20 mV to the cells at an interval of 5 seconds. The compound evaluation was carried out by sequentially replacing the external solution containing the compound (1 μmol/L, 3 μmol/L, 10 μmol/L, and 50 μmol/L), and measuring the current. The inhibition ratio was calculated from the peak current value, and the IC50 value was determined by converting the inhibition ratio according to a probit analysis, and then calculating the IC50 value from an approximation formula deduced by linear regression.
Compound CCOC(c1ccc(OC(F)(F)F)cc1)c1nc2cc(Cl)cnc2[nH]1 (stereo not shown) [Example 53] has an IC50 of 1770 nM.
OC(c1ccc(OC(F)(F)F)cc1)c1nc2cc(F)ccc2[nH]1 (stereo not shown) [Example 1, (5-Fluoro-1H-benzimidazol-2-yl)-(4-trifluoromethoxyphenyl)methanol] was tested, and the IC50 was 1920 nM.
For OC(c1ccc(OC(F)(F)F)cc1)c1nc2cc(Cl)cnc2[nH]1 (stereo not shown) [Example 44, (6-Chloro-3H-imidazo[4,5-b]pyridin-2-yl)-(4-trifluoromethoxyphenyl)methanol], the IC50 was 1010 nM.
With CCOC(c1ccc(OC(F)(F)F)cc1)c1nc2cc(F)ccc2[nH]1 (stereo not shown) [Example 70, 2-[Ethoxy(4-trifluoromethoxyphenyl)methyl]-5-fluoro-1H-benzimidazole] the IC50 was 1760 nM.

What follows are compounds tested against T1, human T-type calcium channels (human Cav3.2) (assay: Intracellular calcium (Fura2 fluorescence) assay in HEK293 cells stably expressing human Cav3.2). Details: Fura2 fluorescence ratio after calcium chloride addition, 15 min with compound.
Format: cell-based
Method: Representative compounds of the present invention were tested on the selective antagonistic effect against T-type calcium channels (Cav3.2) by way of the following Test Example. For each test, human embryonic kidney cells (HEK293 cells) in which human T-type calcium channels (human Cav3.2) were stably expressed were used.
HEK293 cells in which human Cav3.2 were stably expressed were cultured at 37° C. in Alpha-MEM containing 10% (v/v) fetal bovine serum (FBS), penicillin (100 U/mL), streptomycin (100 μg/mL) and G418 (250 μg/mL). The cells were suspended in the culture medium and seeded onto a 96-well plate, and then the cells were cultured for 24 hours. The culture medium was removed, and the culture medium was replaced with S-MEM containing 5% (v/v) FBS, calcium chloride (0.5 mmol/L), L-glutamine (2 mmol/L), L-alanine (8.9 ng/mL), L-asparagine (13.2 ng/mL), L-aspartic acid (1.33 ng/mL), L-glutamic acid (1.47 ng/mL), glycine (7.5 ng/mL), L-proline (11.5 ng/mL), L-serine (10.5 ng/mL), penicillin (100 U/mL), and streptomycin (100 μg/mL). The cells were cultured for another 24 hours. The culture medium was removed again, and the cells were washed with an assay buffer (140 mmol/L sodium chloride, 5 mmol/L potassium chloride, 0.5 mmol/L magnesium chloride, 0.5 mmol/L calcium chloride, 10 mmol/L glucose, 0.4 mmol/L magnesium sulfate, 10 mmol/L HEPES, and 250 μmol/L sulfinpyrazone, pH 7.4) that had been kept warm at 37° C. Subsequently, the assay buffer in which Fura2-AM, which is a fluorescent Ca^2+ indicator, was dissolved at 5 μM was added to the cells, and the cells were cultured at 37° C. for 30 minutes. The assay buffer containing dissolved Fura2 was removed, and the cells were washed with the assay buffer. Subsequently, the assay buffer to which a test compound had been added was added to the cells, and the cells were cultured for 15 minutes. The plate was placed in a fluorescence analyzer (Flex Station II, Molecular Devices, LLC), the baseline was measured, and then the change in the intracellular calcium concentration that was caused when an assay buffer containing 100 mmol/L calcium chloride was added, was measured (excited at 340 nm and 380 nm, and detected at 510 nm). Thus, the fluorescence intensity ratios obtainable at the respective wavelengths were calculated.
Meanwhile, the test compound solution was prepared by dissolving each of the test compounds in DMSO to a concentration of 10 mmol/L, and then adding the assay buffer to a predetermined concentration. As a control solution, DMSO was used instead of the test compounds.
The inhibitory effect value (%) of each test compound was calculated by subtracting the average value of the fluorescence intensity ratio for the period of 0 to 20 seconds after the initiation of measurement, from the average value of the fluorescence intensity ratio for the period of 45 to 50 seconds after the initiation of measurement, and comparing the activity in the presence of the test compound with the value in the control solution as the maximum activity of Cav3.2.
Curve fitting formula (Model 08: Sigmoidal Inhibition Curve, Vmax+Y2 to Y2) Y=Vmax×(1−(X^n/(K^n+X^n)))+Y2
% inhibition value=(RFU (compound)—RFU(LC))/(RFU (HC)−(RFU(LC))
HC: Average of RFU value for the period of 25 to 30 seconds after the addition of Ca^2+-containing assay buffer after the control solution treatment (for the period of 45 to 50 seconds after the initiation of measurement)
LC: Average of RFU value for the period of 25 to 30 seconds after the addition of non-Ca^2+-containing assay buffer after the control solution treatment (for the period of 45 to 50 seconds after the initiation of measurement)
The RFU in the formula represents the relative fluorescence unit.
For CCOC(c1ccc(OC(F)(F)F)cc1)c1nc2cc(Cl)cnc2[nH]1 (stereo not shown) [Example 53], the IC50 was 170 nM.
OC(c1ccc(OC(F)(F)F)cc1)c1nc2cccnc2[nH]1 (stereo not shown) [Example 49] showed an IC50 of 160 nM.
Compound OC(c1ccc(C(F)(F)F)cc1)c1nc2cc(F)ccc2[nH]1 (stereo not shown) [Example 4] has an IC50 of 650 nM.
OC(c1ccc(OC(F)(F)F)cc1)c1nc2cc(F)ccc2[nH]1 (stereo not shown) [Example 1, (5-Fluoro-1H-benzimidazol-2-yl)-(4-trifluoromethoxyphenyl)methanol] showed an IC50 of 320 nM.
Work on CCOC(c1ccc(OCc2ccc(F)cc2)cc1)c1nc2cc(Cl)cnc2[nH]1 (stereo not shown) [Example 58] yielded an IC50 of 700 nM.
With OC(c1ccc(SC(F)(F)F)cc1)c1nc2cc(F)ccc2[nH]1 (stereo not shown) [Example 3] the IC50 was 470 nM.
OC(c1ccc(OC(F)(F)F)cc1)c1nc2cc(Cl)cnc2[nH]1 (stereo not shown) [Example 44, (6-Chloro-3H-imidazo[4,5-b]pyridin-2-yl)-(4-trifluoromethoxyphenyl)methanol] showed an IC50 of 10 nM.
OC(c1ccc(OC(F)(F)F)c(Br)c1)c1nc2cc(F)ccc2[nH]1 (stereo not shown) [Example 13] was tested, and the IC50 was 270 nM.
In the case of CCOC(c1ccc(OC(F)(F)F)cc1)c1nc2cc(C#N)ccc2[nH]1 (stereo not shown) [Example 115, 2-[Ethoxy(4-trifluoromethoxyphenyl)methyl]-1H-benzimidazole-5-carbonitrile], the IC50 is reported as 990 nM.
With OC(c1ccc2c(c1)OC(F)(F)O2)c1nc2cc(Cl)cnc2[nH]1 (stereo not shown) [Example 50] the IC50 was 50 nM.
OC(c1ccc(C(F)(F)F)c(F)c1)c1nc2cc(F)ccc2[nH]1 (stereo not shown) [Example 5] showed an IC50 of 210 nM.
In the case of N#Cc1ccc2[nH]c(C(O)c3ccc(OC(F)(F)F)cc3)nc2c1 (stereo not shown) [Example 114, 2-[Hydroxy(4-trifluoromethoxyphenyl)methyl]-1H-benzimidazole-5-carbonitrile], the IC50 is reported as 190 nM.
With OC(c1ccc(OC(F)(F)F)c(F)c1)c1nc2cc(F)ccc2[nH]1 (stereo not shown) [Example 12] the IC50 was 100 nM.
Compound CCOc1ccc2[nH]c(C(OCC)c3ccc(SC(F)(F)F)cc3)nc2c1 (stereo not shown) [Example 91] has an IC50 of 960 nM.
In the case of COC(c1ccc(OC(F)(F)F)cc1)c1nc2cc(F)ccc2[nH]1 (stereo not shown) [Example 89], the IC50 is reported as 780 nM.
With CCCSc1ccc2[nH]c(C(O)c3ccc(OC(F)(F)F)cc3)nc2c1 (stereo not shown) [Example 47] the IC50 was 590 nM.
CCOC(c1ccc(OC(F)(F)F)c(F)c1)c1nc2cc(F)ccc2[nH]1 (stereo not shown) [Example 29] was tested, and the IC50 was 370 nM.
In the case of CCOC(c1ccc(OC(F)(F)F)cc1)c1nc2cc(F)ccc2[nH]1 (stereo not shown) [Example 70, 2-[Ethoxy(4-trifluoromethoxyphenyl)methyl]-5-fluoro-1H-benzimidazole], the IC50 is reported as 580 nM.
OC(c1ccc(OC(F)(F)C(F)F)cc1)c1nc2cc(F)ccc2[nH]1 (stereo not shown) [Example 6] gave an IC50 of 590 nM.
CCOC(c1ccc(C(F)(F)F)cc1)c1nc2cc(F)ccc2[nH]1 (stereo not shown) [Example 27] showed an IC50 of 920 nM.
With OC(c1ccc(OC(F)(F)F)cc1)c1nc2cc(Br)ccc2[nH]1 (stereo not shown) [Example 112] the IC50 was 370 nM.
OC(c1ccc(OC(F)(F)F)cc1)c1nc2ccc(Cl)nc2[nH]1 (stereo not shown) [Example 46] was tested, and the IC50 was 220 nM.
CCOC(c1ccc2c(c1)OC(F)(F)O2)c1nc2cc(F)ccc2[nH]1 (stereo not shown) [Example 32] showed an IC50 of 630 nM.
OC(c1ccc2c(c1)OC(F)(F)O2)c1nc2cc(F)ccc2[nH]1 (stereo not shown) [Example 16] gave an IC50 of 490 nM.
